Test results reported in US5873359A, “Methods and devices for treating pulmonary vasoconstriction and asthma” (The General Hospital Corporation, priority 1994, dated 1999).
Where two headings read alike, the source gives them in different places.

Assays:
[1] = tested on: lungs; test: Light microscopy of lungs for morphological changes caused by breathing NO; assay type: in vivo; settings: 80 ppm NO for 180 min, three lambs vs control lungs
Procedure: Lungs from three lambs which had breathed 80 ppm NO for 180 min were studied by light microscopy for evidence of morphological changes caused by breathing NO.

[2] = tested on: persistent pulmonary hypertension of the newborn (PPHN); assay type: in vivo, human
Procedure: First subject. Through compassionate use, nitric oxide was administered to an infant suffering from persistent pulmonary hypertension and congenital heart disease. As a result of prolonged ventilation, absence of a preductal arterial blood sampling site, and the existence of the atrial-ventricular (AV) canal, the patient was not included in the PPHN study mentioned above.
The patient was a 3225 gm, full term person who had been treated with extracorporeal membrane oxygenation (ECMO) because of the severity of their congenital heart disease and profound hypoxemia. They had been taken off ECMO and was being maintained intubated and ventilated in the newborn intensive care unit. They subsequently became progressively hypoxemic, as reflected in their post-ductal pulse oximetry (POX) values. By the time they were taken to the catheterization laboratory to confirm the existence of the A-V canal and to determine if some emergent cardiac surgery was needed, they were receiving maximal medical and ventilatory life support and remained dangerously hypoxemic. Under these circumstances, we were granted consent to treat the patient with nitric oxide.
Upon arrival to the catheterization laboratory, the patient was extremely cyanotic. They were treated with fentanyl, oxygen, hyperventilation and intravenous fluid boluses to stabilize them prior to administering NO.
We utilized a regulator to step-down the pressure of the NO into a blender, which allowed us to adjust the relative amounts of the 800 ppm NO/N2 and 100% N2 supplies. Treating the patient with pure oxygen, we increased the flow of N2 through a flow regulator into the inspiratory circuit of the breathing cicuit until the FI O2 was 0.9. This provided a 1:10 dilution of the nitrogen gas. We then used the blender to adjust the relative amounts of N2 and […] to provide 0 to 80 ppm of NO.

[3] = tested on: non-constricted human lung; test: 40 ppm NO in healthy volunteers breathing air (non-constricted lung); assay type: in vivo
Procedure: The effects of breathing 40 ppm NO were studied in five awake, healthy human volunteer subjects inhaling various gas mixtures for 10 min periods, with measurements starting at 6 min.

[4] = NO 80 ppm, restarted after OFF #1
[5] = air (21% O2) + 40 ppm NO, n = 5, X ± S.D.

Q: How did the “morphological changes of lungs” value [1] turn out when [N]=O [NO, nitric oxide] was run?
A: No significant differences

Q: And the “arterial saturation, pulse oximetry values and arterial partial pressure of oxygen” value ([2]; NO 20-80 ppm)?
A: modest increase in arterial saturation, pulse oximetry values, and arterial partial pressure of oxygen

Q: What about the “effect on systemic blood pressure” value ([2]; NO 20-80 ppm) of the same compound?
A: no adverse effect on systemic blood pressure

Q: And the “O2 SAT, PA” value ([2]; NO 20 ppm)?
A: 70%

Q: And the “O2 SAT, POX (pulse oximeter), postductal” value ([2]; NO 20 ppm)?
A: 91%

Q: And the “O2 SAT, RA” value ([2]; NO 20 ppm)?
A: 67%

Q: And the “O2 SAT, postductal ART” value ([2]; NO 20 ppm)?
A: 85%

Q: What about the “mean pressure, ART” value ([2]; NO 20 ppm) of the same compound?
A: 45 mmHg

Q: What about the “mean pressure, PA” value ([2]; NO 20 ppm) of the same compound?
A: 50 mmHg

Q: And the “mean pressure, RA” value ([2]; NO 20 ppm)?
A: 5 mmHg

Q: What about the “postductal arterial PO2, ART” value ([2]; NO 20 ppm) of the same compound?
A: 46 mmHg

Q: And the “O2 SAT, PA” value ([2]; NO 40 ppm)?
A: 74%

Q: And the “O2 SAT, POX (pulse oximeter), postductal” value ([2]; NO 40 ppm)?
A: 93%

Q: What about the “O2 SAT, RA” value ([2]; NO 40 ppm) of the same compound?
A: 72%

Q: What about the “O2 SAT, postductal ART” value ([2]; NO 40 ppm) of the same compound?
A: 74%

Q: What about the “mean pressure, ART” value ([2]; NO 40 ppm) of the same compound?
A: 43 mmHg

Q: What about the “mean pressure, PA” value ([2]; NO 40 ppm) of the same compound?
A: 52 mmHg

Q: And the “mean pressure, RA” value ([2]; NO 40 ppm)?
A: 4 mmHg

Q: And the “postductal arterial PO2, ART” value ([2]; NO 40 ppm)?
A: 50 mmHg

Q: What about the “O2 SAT, PA” value ([2]; NO 80 ppm) of the same compound?
A: 75%

Q: What about the “O2 SAT, RA” value ([2]; NO 80 ppm) of the same compound?
A: 74%

Q: What about the “mean pressure, ART” value ([2]; NO 80 ppm) of the same compound?
A: 47 mmHg

Q: And the “mean pressure, PA” value ([2]; NO 80 ppm)?
A: 53 mmHg

Q: What about the “mean pressure, RA” value ([2]; NO 80 ppm) of the same compound?
A: 5 mmHg

Q: And the “O2 SAT, POX (pulse oximeter), postductal” value ([2]; NO 80 ppm, first)?
A: 94%

Q: And the “O2 SAT, postductal ART” value ([2]; NO 80 ppm, first)?
A: 88%

Q: And the “postductal arterial PO2, ART” value ([2]; NO 80 ppm, first)?
A: 51 mmHg

Q: What about the “O2 SAT, POX (pulse oximeter), postductal” value [2, 4] of the same compound?
A: 90%

Q: And the “O2 SAT, postductal ART” value [2, 4]?
A: 85%

Q: What about the “postductal arterial PO2, ART” value [2, 4] of the same compound?
A: 48 mmHg

Q: And the “arterial saturation and oxygen gas tension on discontinuation” value ([2]; after nitric oxide was discontinued)?
A: precipitously dropped

Q: What about the “oxygen saturation and blood gas tension on restart” value ([2]; nitric oxide restarted) of the same compound?
A: succeeded in improving the oxygen saturation and blood gas tension

Q: And the gas exchange ([2]; pulmonary hypertension and congenital heart disease)?
A: improving gas exchange

Q: What about the “oxygenation level on second weaning” value ([2]; subsequent attempt to wean off nitric oxide) of the same compound?
A: deteriorated to dangerously low levels

Q: And the “pulmonary or systemic vasodilatory effect” value ([3]; 40 ppm NO, normal (21% v/v) O2)?
A: no pulmonary or systemic vasodilatory effect

Q: And the PVR ([3]; air (21% O2) + 40 ppm NO, n = 5)?
A: 0.61 mmHg · min/l

Q: And the CO [3, 5]?
A: 6.40 ± 0.88 L/min

Q: What about the CVP [3, 5] of the same compound?
A: 6.3 ± 1.7 mmHG

Q: What about the MAP [3, 5] of the same compound?
A: 88.0 ± 3.7 mmHg

Q: And the PAP [3, 5]?
A: 14.0 ± 1.8 mmHg

Q: And the PCWP [3, 5]?
A: 10.1 ± 2.5 mmHg

Q: And the PaCO2 [3, 5]?
A: 38 ± 5 mmHg

Q: What about the PaO2 [3, 5] of the same compound?
A: 94.7 ± 16.3 mmHg

Q: What about the SaO2 [3, 5] of the same compound?
A: 96.0 ± 1.0%
